Laboratory results taken from patent publication US20050187188A1, “Methods for the treatment of a traumatic central nervous system injury” (Emory University, priority 2000, published 2005).
Entries after “also recorded” stand apart in the source; their conditions may differ.

What was measured:
[1] = system: rats with bilateral contusions of the medial prefrontal cortex; test: Morris water maze task, Example 6; assay type: in vivo, rat
Protocol: (§1) Male Sprague-Dawley rats (300 g) were housed individually in wire cages and kept on a reverse light-dark cycle (0800-2000 h). Animals were assigned to one of four groups: (1) lesion (n=7); (2) lesion +3 days progesterone (LP3; n=7); (3) lesion +5 days progesterone (LP5; n=7); and (4) Sham (n=8). All procedures involving animals conformed to guidelines set forth in the Guide for the Care and Use of Laboratory Animals (U.S. Department of Health and Human Services, Pub no. 85-23, 1985) and were approved by the Emory University Institutional Animal Care and Use Committee.
Bilateral contusions of the medial prefrontal cortex were created by a pneumatic impactor device as previously described. Briefly, rats were given anesthetized with ketamine/xylazine (90 mg/kg; 10 mg/kg) and placed in a stereotaxic apparatus. A craniectomy (diameter 6 mm) was made over the midline of the prefrontal cortex with its center 1.5 mm AP to bregma. After removal of the bone, the tip of the impactor (diameter 5 mm) was moved to +3.0 mm AP; 1.0 mm ML (from bregma), and checked for adequate clearance. Trauma was produced by pneumatically activating the piston to impact −2.0 mm DV (from dura) at a velocity of 3 m/s with a brain contact time of 0.5 seconds.
Progesterone was dissolved in peanut oil (Sigma; 4 mg/kg) and injections were given at 1 and 6 hours post-injury and then once per day for either 3 or 5 consecutive days. Control animals received injections of vehicle at similar time-points. Animals were coded with regard to surgery and treatment to prevent experimenter bias during behavioral testing and histological examination.
(§2) Experienced individuals who were blind to treatment conditions of the study conducted all histological and behavioral analyses. All data were tested for normality and homoschedasticity before being analyzed by parametric analysis of variance (ANOVA). MWM results were analyzed using separate mixed-factorial (4 groups×5 days) analysis of variance (ANOVA) on each of the two 5-day testing periods (acquisition and retention respectively). Results of the BSN task were analyzed using the mixed-factorial ANOVA (4 groups×2 post-injury trials). […] Pearson r coefficients were calculated to determine whether significant correlations could be detected between histological (e.g., lesion size and cellular density) and behavioral parameters (e.g., acquisition and retention of the MWM task and measures of sensory neglect).
Beginning one week after surgery, spatial learning ability was assessed in the Morris water maze (MWM) task described previously. […] Animals were placed in the pool (nose facing the pool-wall) at one of four randomly determined starting positions (e.g.: N, S, E, W). […] Swim speed measures were recorded daily in order to delineate motor dysfunction from learning impairment.

[2] = system: rats with medial frontal cortical contusions; test: Cerebral edema (brain tissue water content) after medial frontal cortex contusion, Example 1; assay type: in vivo, rat; conditions: 4 mg/kg in cyclodextrin, i.p. 1 h and s.c. 6 h post-injury; 2, 24 and 72 hours; compared to vehicle
Protocol: Contusions to the medical frontal cortex (MFC) using a pneumatic impactor device were generated. Animals were anesthetized by injection of Nembutal (50 mg/kg, i.p) and placed in a stereotaxic apparatus, with body core temperature being maintained with a homeothermic heating blanket system. Using aseptic techniques, a midline incision was made in the scalp, and the fascia retracted to expose the cranium. A centered, bilateral craniotomy was made 3 mm anterior to bregma using a 6 mm diameter trephan. After the removal of the bone, the tip of the impactor was moved to AP:3.0; ML:0.0, checked for adequate clearance, retracted to its elevated position and lowered 3.5 mm DV, so it penetrated the cortex 2 mm. The contusion was made at a velocity of 2.25 m/s with a brain contact time of 0.5 seconds. Following this procedure, the wound cavity was thoroughly cleaned and all bleeding stopped before the fascia and scalp, were sutured closed. In all experiments, the rats' group identity was coded with regard to surgery and treatment to prevent experimenter bias during behavioral testing and later histological examination.
These experimental solutions were then diluted 1:1 with sterile water for a final concentration of HBC of 22.5%.
Sprague-Dawley male rats, approximately 90 days of age at the time of surgery, were used. Rats were housed in individual cages, with a 12:12 light:dark cycle. Food and water were provided ad libitum throughout the experiment. Control rats received sham surgeries and the rest received medial frontal cortical contusions as described in the general methods. The sham-operated controls were given vehicle (cyclodextrin). […] Treatment began one hour after the contusion was produced. […] Subsequently, a second subcutaneous injection 6 hours post-injury for absorption that is more gradual. […]
At 2, 24, and 72 hours the rats were anesthetized, decapitated, and their brains removed quickly from the cranial cavity. […] The brain was placed on a pre-weighed dish and the total weight of the sample was measured. […]

[3] = system: rats with bilateral contusions of the medial prefrontal cortex; test: Cell counts of Nissl-stained neurons (STR, GP, DMN, VMN), Example 6; assay type: in vivo, rat; conditions: 4 mg/kg in peanut oil
Protocol: as §1
Bilateral contusions of the medial prefrontal cortex were created by a pneumatic impactor device as previously described. Briefly, rats were given anesthetized with ketamine/xylazine (90 mg/kg; 10 mg/kg) and placed in a stereotaxic apparatus. A craniectomy (diameter 6 mm) was made over the midline of the prefrontal cortex with its center 1.5 mm AP to bregma. […]
Cell counts were done on an Olympus BH-2 microscope equipped with an eyepiece micrometer grid (sample area=40 μm^2 at ×400 magnification). […] Only cells with neuronal nuclei and intact membranes were counted as neurons.
as §2

contusion injury = conditions: cited from earlier work
TNFα = TNFα mRNA expression in brain tissue after contusion, real-time quantitative PCR; assay type: in vivo, rat; conditions: 3 hours and 6 days post-injury
From the text: Neurosteroid injections were given at 1 hr and 6 hrs after the contusions, and continued once a day for up to 5 consecutive days post-injury.
Adult male SD rates received either bilateral prefrontal cortical contusions or sham surgeries. The neurosteroid injections were given at 1 hr and 6 hr after the contusions and continued once a day for up to 5 consecutive days post-injury. At 3 hr, 8 hr, 12 hr and 6 days post-injury, the rats were killed and their brains were processed for mRNA extraction. Expression of mRNA for IL-1β and TNFα were assessed using real-time quantitative PCR.

CC(=O)[C@H]1CC[C@H]2[C@@H]3CCC4=CC(=O)CC[C@]4(C)[C@H]3CC[C@]12C [progesterone]
spatial learning performance, initial 5-day acquisition phase ([1]; 4 mg/kg in peanut oil, 3 or 5 days, all injured groups): displayed deficits in spatial learning performance as compared to control animals | spatial learning performance, second 5-day trial block ([1]; 4 mg/kg in peanut oil, 5 days (LP5)): improved spatial learning performance | swim speed ([1]; 3 or 5 days, any day of testing): no between-group differences | thigmotaxic (wall-hugging) swim patterns ([1]; 5 days (LP5), last 2 days of the second phase of MWM testing): reduction of thigmotaxic behavior | cerebral edema [2]: intermediate between injured controls and the allopregnanolone-treated injured rats | injury-induced neuronal loss (STR, GP, DMN, VMN) ([3]; 3 days (LP3)): significant reduction of injury-induced neuronal loss in all brain regions examined | injury-induced neuronal loss (STR, GP, DMN, VMN) ([3]; 5 days (LP5)): significant reduction of injury-induced neuronal loss in all brain regions examined | neuronal loss in the VMN ([3]; 5 days (LP5)): more effective than 3 days at attenuating neuronal loss in the VMN; also recorded: significant reductions in cell loss of the VMN | post injury cerebral edema (contusion injury; following a contusion injury): reduces the severity of post injury cerebral edema | neuronal loss in the LMDN (contusion injury; previous studies with this injury model): can significantly reduce this neuronal loss | TNFα mRNA expression (TNFα): reduced the expression of both IL-1β and TNFα
